Assay results from patent US20040018528A1, “Novel biomarkers of tyrosine kinase inhibitor exposure and activity in mammals” (Sugen, Inc., priority 2002, published 2004).
Values joined by “and” are separate entries in the source; they are usually repeats but may differ in a detail not shown here. Equal entries are not always repeated. “Also recorded” adds a separate entry of the source.

Tests used:
[1] = system: VEGF/PLGF heterodimers; test: Hybrid ELISA for VEGF/PLGF heterodimers in patient plasma; format: in vivo, human; conditions: Trial C
Description: Heterodimers of VEGF and PLGF have been reported in the scientific literature. To measure heterodimers, a hybrid ELISA assay was used, combining reagents from both the R&D Systems VEGF and PLGF ELISA kits (where VEGF antibodies are used in capture step and PLGF antibodies are used in detection step).

[2] = system: MIG; test: MIG plasma ELISA, Compound 1 Phase I trials; format: in vivo, human; conditions: individual patients; in pg/mL (unit assumed)
Description: (§1) In Trials A and B, patients received Compound 1.
(§2) Data analysis was performed for each marker.

[3] = system: IP-10; test: IP-10 plasma ELISA, Compound 1 Phase I trials; format: in vivo, human
Description: as §1, §2

[4] = system: I-TAC; test: I-TAC plasma ELISA, Compound 1 Phase I trials; format: in vivo, human
Description: as §1, §2

[5] = system: 42 human cytokines; test: Antibody membrane array (RayBio Human Cytokine Array III) screen of patient plasma; format: in vivo; conditions: plasma of one Trial B patient, confirmed by MIG ELISA
Description: All of the ELISA-based screening of candidate proteins were performed with commercially available ELISA kits; the kits for the biomarkers described in this report are all available from R&D Systems (Minneapolis, Minn.). A commercially available membrane array containing antibodies for the detection of 42 human cytokines was also used in screening of a patient's plasma samples before and after treatment. The antibody array used in cytokine screening (RayBio Human Cytokine Array III) was from RayBiotech (Norcross, Ga.).

[6] = system: HUVECs; test: 2D gel analysis of conditioned media of VEGF-stimulated HUVECs; format: cell-based, human; conditions: HUVEC conditioned media; VEGF and compound 1 (1 uM) at 24 h; Run #1, Run #2
Description: Thawed conditioned media samples were precipitated with three volumes of acetone for 2 hours at −20° C., then centrifuged at 13000 RPM for 15 minutes. […] Protein was quantitated with Bio-Rad Protein Assay (cat#500-0006) using the microassay for cuvettes protocol.
Samples were diluted to 0.3 μg/μl with IEF Buffer containing 1% IPG Buffer pH 3-10 (Amersham). Eighteen centimeter IPG strips pH 3-10 (Amersham) were rehydrated with 120 μg sample (400 μL) under Drystrip Cover Fluid (Amersham) on the IPGphor (Amersham) at 20° C. for 18 hours. Strips were focused with the following program: 200 volts for 1 hour, ramped from 200 volts to 1000 volts over two hours, held at 1000 volts for 1 hour, ramped from 1000 volts to 8000 volts over 6 hours, then held at 8000 volts for 10 hours. […] Gels were over-layed with water-saturated butanol (Fisher), and left to polymerize at room temperature overnight.
Focused strips were equilibrated for ten minutes with gentle shaking in 10 milliliters Equilibration Buffer: 6 M Urea (Fisher), 50 mM tris-HCl pH 8.8 (Fisher), 30% glycerol (Fisher), 2% SDS (Fisher) with 1% dithiothreitol followed by ten minutes in Equilibration Buffer with 4% iodoacetamide.
The equilibrated strips were loaded onto the gel surfaces and sealed with hot agarose overlay solution containing 0.5% agarose in 50 mM tris-HCl pH 6.8, 2% SDS. […]

[7] = system: HUVEC; test: pro-MMP1 ELISA of HUVEC conditioned media; format: cell-based, human; conditions: for Average pro-MMP1: HUVEC conditioned media
Description: Cells were propagated at 37° C. in a humidifed atmosphere of 5% CO2 using standard cell culture techniques. Cells were plated in 10-cm tissue culture plates at 8.5×10^5 cells/ml. After 6 hours the cells were quiesced by serum starvation overnight in starvation medium (EBM containing 0.5% FBS). […] Conditioned media was stored at −70° C. until subsequent analysis.
Reagents for human pro-Matrix Metalloproteinase 1 (pro-MMP-1) ELISA kits were obtained from R&D Systems, Inc. (Minneapolis, Minn.; catalog #DMP100). ELISAs were performed on conditioned media samples according to the manufacturers' instructions. The optical density of each well was determined using a universal microplate spectrophotometer (μQuant) from Bio-Tek Instruments, Inc. (Winooski, Vt.). KC-4 software from Bio-Tek Instruments, Inc. was used to extrapolate cytokine concentrations from the standard curves.

[8] = system: pro-MMP1; test: pro-MMP1 levels in plasma of Study B patients; format: in vivo, human; conditions: Study B patients after receiving compound
[9] = system: FLT3 ligand (FL); test: FLT3 ligand plasma ELISA; format: in vivo, human
Description: Reagents for FLT3 ligand (FL) and IL-6 ELISA kits were obtained from R&D Systems, Inc. (Minneapolis, Minn.; catalog #s DFK00, Q6000). […] ELISAs were performed on patient plasma according to the manufacturers' instructions. The FL and CRP kits relied on a colorimetric readout; the optical density of each well was determined using a microplate spectrophotometer and data was analyzed using KC-4 software from Bio-Tek Instruments, Inc. The IL-6 kit was a chemiluminescent sandwich ELISA; luminescence values were determined on a microplate luminometer. SOFTmaxPRO software was used to extrapolate cytokine concentrations from the standard curves.

[10] = system: IL-6; test: IL-6 plasma ELISA; format: in vivo, human; conditions: patients, FIG. 26
Description: (§3) Reagents for FLT3 ligand (FL) and IL-6 ELISA kits were obtained from R&D Systems, Inc. (Minneapolis, Minn.; catalog #s DFK00, Q6000). C-reactive protein (CRP) (accession ID AAA 52075) ELISA kits were obtained from KMI Diagnostics (Minneapolis, Minn.; catalog #EU59131). ELISAs were performed on patient plasma according to the manufacturers' instructions. The FL and CRP kits relied on a colorimetric readout; the optical density of each well was determined using a microplate spectrophotometer and data was analyzed using KC-4 software from Bio-Tek Instruments, Inc. The IL-6 kit was a chemiluminescent sandwich ELISA; luminescence values were determined on a microplate luminometer. SOFTmaxPRO software was used to extrapolate cytokine concentrations from the standard curves.

[11] = system: C-reactive protein (CRP); test: C-reactive protein plasma ELISA; format: in vivo, human; conditions: patients, FIG. 27
Description: as §3

[12] = system: OB-cadherin 1 (cadherin 11); test: Immunohistochemistry of OB-cadherin 1 in Colo205 xenograft tumors; format: in vivo, mice; conditions: 24 or 48 hours exposure, vs vehicle treated, IHC
Description: Colo205 human colon xenograft tumors were isolated and fixed in Streck Tissue Fixative (Streck Laboratories, Inc., La Vista, […].). Samples used in immunohistochemistry were sent out to BioPathology Sciences Medical Corporation (South San Francisco, Calif.) for paraffin embedding and sectioning.
A rabbit polyclonal antibody recognizing the cytoplasmic tail region of OB-cadherin 1 (cadherin 11) was purchased from Zymed Laboratories, Inc. (Zymed reagent #71-7600; South San Francisco, Calif.).
Sections (4-5 μm) stained using an automated immunohistochemistry system (Benchmark System, Ventana Medical Systems, Inc., Tucson, Ariz.). In brief, slides were deparaffinized using heat at 75° C. and Ventana's EZ Prep product (Ventana reagent #950-102). Antigen retrieval was performed by incubating the slides for 30 min with Ventana's CC2 product (Ventana reagent #950-123), a citrate-based solution with pH 6.0. Primary antibody (5 μg/ml) was incubated for 24 min at room temperature, followed by a secondary detection system, using biotinylated secondary antibody (Vector anti-rabbit secondary, BA-1000, at 2.5 μg/ml; Vector Laboratories, Burlingame, Calif.) with incubation time of 8 min. […] All samples analyzed for OB-cadherin 1 expression were also stained with the omission of primary antibody as a negative control.

[13] = patients checked for both proteins

## CCN(CC)CCNC(=O)c1c(C)[nH]c(C=C2C(=O)Nc3ccc(F)cc32)c1C [Compound 1, 5-(5-Fluoro-2-oxo-1,2-dihydro-indol-3-ylidenemethyl)-2,4-dimethyl-1H-pyrrole-3-carboxylic acid (2-diethylamino-ethyl)-amide]
[1]
  patients tested with increase in plasma levels of VEGF/PLGF heterodimer: 3 of 3
[2]
  MIG plasma level, end C1 dosing: 138.56 and 739.71
[3]; individual patients, >500 = above highest standard
  IP-10 plasma level, end C1 dosing: >500
[3]; [13]
  patients with MIG and IP-10 induced in tandem: 6 of 6
[4]; individual patients, in pg/mL (unit assumed)
  I-TAC plasma level, end C1 dosing: >4000.0 and 212.26
[4]; [13]
  patients with MIG and I-TAC induced in tandem: 5 of 5
[5]
  level of MIG after treatment vs baseline: significantly higher
[6]
  Spot #1202 (pro-MMP-1) quantification, 2D gel: 270 and 484.7
[7]; 10 nM pre-treatment, 10 min post-VEGF
  Average pro-MMP1: 5.41 ng/mL
[7]; 10 nM pre-treatment, 8 hr post-VEGF
  Average pro-MMP1: 14.93 ng/mL
[7]; 10 nM pre-treatment, 24 hr post-VEGF
  Average pro-MMP1: 70.21 ng/mL
[7]; 10 nM pre-treatment, 48 hr post-VEGF
  Average pro-MMP1: 135.35 ng/mL
[7]; 100 nM pre-treatment, 10 min post-VEGF
  Average pro-MMP1: 5.78 ng/mL
[7]; 100 nM pre-treatment, 8 hr post-VEGF
  Average pro-MMP1: 12.75 ng/mL
[7]; 100 nM pre-treatment, 24 hr post-VEGF
  Average pro-MMP1: 50.26 ng/mL
[7]; 100 nM pre-treatment, 48 hr post-VEGF
  Average pro-MMP1: 128.75 ng/mL
[7]; 1 uM pre-treatment, 10 min post-VEGF
  Average pro-MMP1: 5.04 ng/mL
[7]; 1 uM pre-treatment, 8 hr post-VEGF
  Average pro-MMP1: 14.48 ng/mL
[7]; 1 uM pre-treatment, 24 hr post-VEGF
  Average pro-MMP1: 50.42 ng/mL
[7]; 1 uM pre-treatment, 48 hr post-VEGF
  Average pro-MMP1: 103.09 ng/mL
[7]; VEGF-treated HUVEC, pre-incubation at 10 nM, 100 nM or 1 uM
  levels of pro-MMP1 in HUVEC conditioned media: decreased
[8]
  pro-MMP1 levels in plasma of patients: increased
[9]; 18 patients enrolled in Trial B, day 1 to day 28
  patients exhibiting an increase in FLT3 ligand (FL) concentration: 100%
[9]; expanded set of patients, FIG. 25
  FLT3 ligand (FL) plasma level during treatment: induced; also recorded: Dramatic induction
[10]
  interleukin-6 (IL-6) plasma level during treatment: induced
[11]
  C-reactive protein (CRP) plasma level during treatment: induced
[12]
  protein expression of OB-cadherin 1 (cadherin 11): up-regulated; also recorded: up-regulation
